# Test results from patent US12156889B2, “Methods of administering mesenchymal stem cells activated by cytokines for enhancing immunosuppression” (Rutgers, The State University of New Jersey, priority 2012, dated 2024).
# B1: IFNβ: type I IFN, printed as IFNα or β (protein, UniProt P01575 22-182, looked up)
# Interferon beta: INYKQLQLQERTNIRKCQELLEQLNGKINLTYRADFKIPMEMTEKMQKSYTAFAIQEMLQNVFLVFRNNFSSTGWNETIVVRLLDELHQQTVFLKTVLEEKQEERLTWEMSSTALHLKSYYWRVQRYLKLMKYNSYAWMVVRAEIFRNFLIIRRLTRNFQN
# B2: TNFα: recombinant mouse tumor necrosis factor-alpha (protein)
# chain: LRSSSQNSSDKPVAHVVANHQVEEQLEWLSQRANALLANGMDLKDNQLVVPADGLYLVYSQVLFKGQGCPDYVLLTHTVSRFAISYQEKVNLLSAVKSPCPKDTPEGAELKPWYEPIYLGGVFQLEKGDQLSAEVNLPKYLDFAESGQVYFGVIAL
# B3: IFNγ: recombinant mouse interferon-gamma (protein)
# chain: HGTVIESLESLNNYFNSSGIDVEEKSLFLDIWRNWQKDGDMKILQSQIISFYLRLFEVLKDNQAISNNISVIESHLITTFFSNSKAKKDAFMSIAKFEVNNPQVQRQAFNELIRVVHQLLPESSLRKRKRSRC
# B4: IL-6: Interleukin-6 (protein, UniProt P08505 25-211, looked up)
# Interleukin-6: FPTSQVRRGDFTEDTTPNRPVYTTSQVGGLITHVLWEIVEMRKELCNGNSDCMNNDDALAENNLKLPEIQRNDGCYQTGYNQEICLLKISSGLLEYHSYLEYMKNNLKDNKKDKARVLQRDTETLIHIFNQEVKDLHKIVLPTPISNALLTDKLESQKEWLRTKTIQFILKSLEEFLKVTLRSTRQT
# Tests used:
# [1] = tested on: splenocytes; experiment: Anti-CD3-activated splenocyte proliferation in co-culture with MSCs; type: cell-based, mouse; details: for effect on immunosuppression by MSCs: indomethacin 10 μM, anti-IL-10 20 μg/ml, anti-TGFβ 20 μg/ml, 1-MT 1 mM; for splenocyte proliferation in MSC co-culture with iNOS inhibitor: MSCs + splenocytes + anti-CD3
# Protocol: FIGS. 9A, 9B, 9C, 9D, 9E, 9F and 9G. […] Cloned MSCs were first treated with the indicated combinations of recombinant cytokines IFNγ, TNFα, IL-17A (2 ng/ml each) for 12 hr, then cocultured with CD4^+ T cell blasts at a 1:20 ratio (MSC:T cells), and proliferation was assessed by 3H-thymidine incorporation after an additional 12 hr. (FIG. 9B). The mRNA expression of IL-17 receptor family members in MSCs or Raw 264.7 (Macrophages) were examined by RT-PCR. NC: No RT. (FIG. 9C). Surface expression of IL-17RA was detected by immunofluoresence or flow cytometry in cloned MSCs. (FIGS. 9D and 9E). MSCs were first treated with IFNγ and TNFα with or without IL-17A (10 ng/ml), IFNγ and TNFα were supplemented at different cytokine concentrations, for 12 hr, and then cocultured with CD4^+ T cell blasts (FIG. 9D) or T cell hybridoma A1.1 cells (FIG. 9E) at a ratio of 1:20 for 12 hr. T cell proliferation was measured by 3H-Tdr incorporation. (FIG. 9F). MSCs were first treated with IFNγ and TNFα (2 ng/ml) with graded concentrations of IL-17A, for 12 hr, and then cocultured with T cell hybridoma A1.1 cells at a ratio of 1:10 for 12 hr. T cell proliferation was measured by 3H-thymidine incorporation. (FIG. 9G). MSCs were cocultured with fresh C57BL/6 splenocytes plus anti-CD3, anti-CD28, and antibodies against IL-17A, at a 1:20 or 1:40 ratio (MSCs:splenocytes), for 48 hr, and then cell proliferation was assessed by 3H-thymidine incorporation. Proliferation values represent means±SEM of three wells from a representative of three experiments.
# To examine the possibility that cytokines induce the immunosuppressive capacity of MSCs, these culture conditions were reproduced by combining MSCs and fresh splenocytes at graded ratios in the presence of anti-CD3. […] The immunosuppressive capacity of MSC clones generated from different mouse strains was also examined.
# To identify the mechanism through which immunosuppression by cytokine-exposed MSCs is effected, the response of anti-CD3-activated splenocytes co-cultured with MSCs (1:20, MSC:splenocytes) in a […] system was examined in various configurations.
# Nitric oxide (NO) at high concentrations is known to inhibit T cell responses. It diffuses quickly from its source, but the concentration of the active form drops off within about 100 μm.
# Proliferation assay—To assay T cell proliferation, 0.5 μCi of 3H-thymidine was added to each well of 96-well plates 6 hr before termination of the cultures by freezing. Plates were then thawed, cells were harvested, and incorporated 3H-Tdr was assessed with a Wallac Microbeta scintillation counter (Perkin-Elmer, Waltham, MA).
# [2] = tested on: peripheral blood mononuclear cell; experiment: Peripheral blood mononuclear cell proliferation with human MSCs; type: cell-based; details: side-by-side comparison mouse and human MSCs
# Protocol: In the present study, with T cell activation or when exogenous inflammatory cytokines are added, the T cells first enter cell cycle arrest and then die within 24 hours. It was also observed that this apoptosis was dependent on NO, since T cell apoptosis was not observed when iNOS inhibitors were used. Apoptosis was also absent when iNOS^−/− or IFNγ R1^−/− MSCs were used. Therefore, NO-induced cell cycle arrest and apoptosis of T cells are part of the mechanism of immunosuppression mediated by inflammatory cytokine-activated MSCs. Differences between species in inflammatory cytokine-induced expression of iNOS has been noted in macrophages (Schneemann & Schoedon. 2002) Nat. Immunol. 3(2):102). […] Thus, the roles of IDO and NO in the inhibition of T cell proliferation by MSCs from mouse and human were analyzed in a side-by-side comparison.
# [3] = tested on: F1 (C57BL/6xC3H) mice; experiment: Graft-versus-host disease (GvHD) model
# Protocol: Recipient mice (C57BL/6xC3H, F1) were lethally irradiated and injected i.v. with C57BL/6 bone marrow cells plus spleenocytes. On days 3 and 7 after bone marrow transplantation, recipients were administered with the indicated MSCs. For some wild-type MSC groups, L-NMMA, anti-IFNγ or a 3-antibody cocktail against TNFα, IL-1α, and IL-1β, (3 Abs) were injected i.p. Survival was monitored daily for 12 weeks.
# GvHD Induction and Modulation by MSCs. C57BL/6×C3H F1 mice at 8-weeks old were lethally irradiated (13 Gy) and after 24 hours were infused by tail vein injection with nucleated bone marrow cells (5×10^6) and splenocytes (5×10^6) isolated from C57BL/6 parent mice. On days 3 and 7 following bone marrow transplantation, the recipients were administrated with 0.5×10^6 MSCs derived from C57BL/6 wild-type, IFNγ R1^−/−, or iNOS^−/− mice via the tail vein. Some wild-type MSC groups were also injected i.p. with the iNOS inhibitor, NG-monomethyl L-arginine (L-NMMA, 500 μg/mouse), anti-IFNγ (400 μg/mouse), or a cocktail of three antibodies against TNFα, IL-1α and IL-1β (200 μg each/mouse) daily for 7 days starting immediately after the first MSC administration. As negative controls, the F1 mice were injected with F1 bone marrow cells. Mice were observed daily for GvHD signs (wasting, ruffled hair, and hunched back) and euthanized upon becoming moribund, thus marking survival time. […]
# [4] = tested on: CD4+ T cell blasts; experiment: T cell blast proliferation in co-culture with MSCs (3H-thymidine incorporation); type: cell-based, mouse; details: for induction of immunosuppression by MSCs with recombinant cytokines: 20 ng/ml each, MSC + T cell blasts or MSC + A1.1 cells, 1:20; for T cell proliferation after MSC treatment with low-concentration cytokines: 2 ng/ml each, 12 hr, then 1:20 MSC:T cells
# Protocol: FIG. 1. is a graph showing that immunosuppression by MSCs is induced by proinflammatory cytokines. Cloned MSCs were supplemented with the indicated combinations of recombinant cytokines (20 ng/ml each) for 8 hours, then co-cultured with CD4+ T cell blasts at a 1:20 ratio (MSC:T cells), and proliferation assessed after an additional 8 hours. Values represent means±SD of five wells from a representative of three experiments with different clones. * p<0.001.
# FIGS. 9A, 9B, 9C, 9D, 9E, 9F and 9G. (FIG. 9A). Cloned MSCs were first treated with the indicated combinations of recombinant cytokines IFNγ, TNFα, IL-17A (2 ng/ml each) for 12 hr, then cocultured with CD4^+ T cell blasts at a 1:20 ratio (MSC:T cells), and proliferation was assessed by 3H-thymidine incorporation after an additional 12 hr. (FIG. 9B). The mRNA expression of IL-17 receptor family members in MSCs or Raw 264.7 (Macrophages) were examined by RT-PCR. NC: No RT. (FIG. 9C). Surface expression of IL-17RA was detected by immunofluoresence or flow cytometry in cloned MSCs. (FIGS. 9D and 9E). MSCs were first treated with IFNγ and TNFα with or without IL-17A (10 ng/ml), IFNγ and TNFα were supplemented at different cytokine concentrations, for 12 hr, and then cocultured with CD4^+ T cell blasts (FIG. 9D) or T cell hybridoma A1.1 cells (FIG. 9E) at a ratio of 1:20 for 12 hr. T cell proliferation was measured by 3H-Tdr incorporation. (FIG. 9F). MSCs were first treated with IFNγ and TNFα (2 ng/ml) with graded concentrations of IL-17A, for 12 hr, and then cocultured with T cell hybridoma A1.1 cells at a ratio of 1:10 for 12 hr. T cell proliferation was measured by 3H-thymidine incorporation. (FIG. 9G). MSCs were cocultured with fresh C57BL/6 splenocytes plus anti-CD3, anti-CD28, and antibodies against IL-17A, at a 1:20 or 1:40 ratio (MSCs:splenocytes), for 48 hr, and then cell proliferation was assessed by 3H-thymidine incorporation. Proliferation values represent means±SEM of three wells from a representative of three experiments.
# T cell blasts were generated from CD4^+ T cells purified by negative selection with […] T cell subset isolation kits (R&D Systems). Cells (1×10^6 cells/ml) were activated by plastic-bound anti-CD3 and soluble anti-CD 28 for 48 hours, then cultured with IL-2 (200 U/ml) alone for 48 hours. All T cell cultures were maintained in RPMI-1640 medium supplemented with 10% heat-inactivated FBS, 2 mM glutamine, 100 U/ml penicillin, 100 μ·g/ml streptomycin, and […] (complete medium).
# Since most reported studies of immunosuppression by MSCs are based on their effects on T cell proliferation and cytokine production, the effect of MSCs was first examined on the IL-2-driven proliferation of T cell blasts. Fresh CD4^+ T cell blasts were generated from splenocytes by activation with anti-CD3 followed by expansion with IL-2 for several days (Devadas, et al. (2006) Immunity 25:237-247; Radvanyi, et al. (1996) Cell Immunol. 170:260-273). T cell blasts were added at a 1:20 ratio (MSC:T cells) along with IL-2 (200 U/ml). Cell proliferation was assessed by ^3H-Tdr incorporation after 8 hours. […] MSCs also had no effect on the proliferation of T hybridoma A1.1 cells. These T cells blasts and T hybridoma cells, however, produce no cytokines unless reactivated through the TCR (Fotedar, et al. (1985) J. Immunol. 135(5):3028-33). Thus, in the absence of T cell cytokines, MSCs were unable to suppress T cell proliferation.
# The effect of IFNγ was then tested directly by adding isolated recombinant IFNγ (20 ng/ml) instead of activated splenocyte supernatant to the mixed co-cultures of MSC+ T cell blasts or MSC+A1.1 cells. […] Therefore, induction of the immunosuppressive function of MSCs by anti-CD3-activated splenocyte supernatant may be due to IFNγ acting in concert with either TNFα; IL-1α; or IL-1β on the MSCs. […]
# [5] = tested on: iNOS; experiment: iNOS mRNA in MSCs by real-time PCR; type: cell-based, mouse; details: 20 ng/ml each
# Protocol: Real-Time PCR. RNA was isolated from cell pellets using an RNEASY Mini Kit. First-strand cDNA synthesis was performed using SENSISCRIPT RT Kit with random hexamer primers (all kits from Qiagen, Valencia, Calif.). mRNA of the genes of interest were quantified by real-time PCR (MX-4000 from Stratagene, La Jolla, Calif.) using SYBR Green Master Mix (Applied Biosystems, Foster City, Calif.). Total amount of mRNA was normalized to endogenous β-actin mRNA. Primers sequences for iNOS were: forward, 5′-CAGCTGGGCTGTACAAACCTT-3′ (SEQ ID NO:1); reverse, 5′-CATTGGAAGTGAAGCGTTTCG-3′ (SEQ ID NO:2). Other primers were from the RT2 PROFILER™ PCR Array Mouse Chemokines & Receptors kit (Superarray, Frederick, Md.).
# Accordingly, it was contemplated that MSCs could upregulate their expression of iNOS and produce NO after exposure to these cytokines. […] […] At 12 hours post-stimulation, the level of iNOS mRNA was more than 7 times greater than β actin message, indicative of extremely high expression.
molecule,measurement,setting,value
"Cn1cc(CC(N)C(=O)O)c2ccccc21 (racemic) [1-MT, 1-methyl-DL-tryptophan]",effect on immunosuppression by MSCs,[1],no effect
same,effect on inhibition of peripheral blood mononuclear cell proliferation by human MSCs,[2],reversed
COC(=O)[C@@H](N)CCCNC(=N)N[N+](=O)[O-] [L-NAME],splenocyte proliferation in MSC co-culture with iNOS inhibitor,[1],same effect
"CNC(=N)NCCC[C@H](N)C(=O)O [L-NMMA, N G-monomethyl-L-arginine]",splenocyte proliferation in MSC co-culture with iNOS inhibitor,[1],completely restored
same,effect on immunosuppression by mouse MSCs,[1]; side-by-side comparison mouse and human MSCs,completely reversed
same,effect on protection by MSC (histology),[3]; 14 days after bone marrow transplantation,almost completely reversed
same,effect on MSC-mediated protection from GvHD (survival),[3]; i.p. daily for 7 days after wild-type MSC infusion,significant reversal
"COc1ccc2c(c1)c(CC(=O)O)c(C)n2C(=O)c1ccc(Cl)cc1 [indomethacin, Indomethacin]",effect on immunosuppression by MSCs,[1],no effect
GM-CSF: Granulocyte-macrophage colony-stimulating factor,induction of immunosuppression by MSCs with recombinant cytokines,[4],no effect
B1,MSC-mediated immunosuppression in MSC+splenocyte+anti-CD3 system,[1],strikingly inhibited
B2,T cell proliferation after MSC treatment with low-concentration cytokines,[4],cannot induce immunosuppression
same,iNOS mRNA upregulation in MSCs by recombinant cytokines,[5],ineffective
B3,T cell proliferation after MSC treatment with low-concentration cytokines,[4],cannot induce immunosuppression
same,induction of immunosuppression by MSCs with recombinant cytokines,[4],did not induce immunosuppression
same,iNOS mRNA upregulation in MSCs by recombinant cytokines,[5],ineffective
B4,induction of immunosuppression by MSCs with recombinant cytokines,[4],no effect
